Patent publication US6645495B1, “Compositions of saponin adjuvants and excipients” (Antigenics, Inc., priority 1997, dated 2003)

Legend:
sheep red blood cells = conditions: cited from earlier work; for concentration causing hemolysis of sheep red blood cells: substantially pure saponin
[1] = cited from earlier work
[2] = in words; cited from earlier work
[3] = earlier clinical trials: pain after injection of QS-21 in simple buffer; assay type: in vivo, humans; conditions: QS-21 in saline or PBS, some individuals
Text: This pain, described by most individuals as a burning pain, may be a secondary reaction correlated with the lytic effect of the QS-21 adjuvant. Patient pain is likewise an objectionable property for a composition.

Balb/c mice = assay: adjuvant potency: anti-OVA IgG2a response of immunized Balb/c mice (EIA); assay type: in vivo
Experimental: FIGS. 1A and 1B show the effect of Polysorbate 40, Polysorbate 60, Polysorbate 80, and methyl-β-cyclodextrin on the immune response of Balb/c mice to OVA plus various doses of QS-21. Female mice (10/group, 8-10 weeks of age at the first immunization) were immunized subcutaneously with 5 μg of OVA and the indicated dose of QS-21 in either PBS alone or in 2 mg/ml excipient in PBS. A booster immunization was given by the same route at week 2. Sera was collected at week 4 for EIA analysis of the anti-OVA response. Mice were analyzed for OVA-specific IgG2a by a standard EIA analysis.

[4] = aqueous shelf life of QS-21 solution at 4° C. (t90); assay type: physicochemical
Experimental: Product stability is another concern for QS-21 containing compositions. The shelf life of a vaccine product is typically defined by the extent of time to reach a defined and acceptable low level of degradation (such as, the time to 10% degradation, also known as t90). Most commercial vaccine products have a shelf life of at least 18 to 24 months when stored in the refrigerator at 4° C. Adjuvants, which are essential components of vaccines, therefore must also have equally long shelf lives. However, the shelf life of a 50 μg/ml solution of QS-21 at pH 7.0 at 4° C. is reached in about 3 months. The reason for the short shelf life is because the ester bond of QS-21 is increasingly labile at increasing pH and because monomers of QS-21, as opposed to micelles, are subject to hydrolysis. The need to stabilize compositions of QS-21 adjuvant is significant.
This is representative of a typical clinical vaccine formulation containing QS-21 adjuvant (which consists of QS-21 at a concentration of 50-200 μg/ml in a-physiological pH buffer (pH 7.0-7.5)). […] Some improvement in stability, however, can be achieved by an increased concentration of the QS-21 product. […] But a concentrated QS-21 solution is not necessarily a practical method of administering a low dose of adjuvant. For example, administration of 25 μg from a 500 μg/ml solution would require the syringe withdrawal of 0.05 ml of dose. Additionally, some improved stability can be achieved by the use of a lower pH, i.e., at pH 6.0. However, a pH substantially lower than the physiological pH range may not be tolerated well or be compatible with the antigen.

[5] = system: New Zealand white rabbits; conditions: cited from earlier work
C57BL/6 mice = conditions: antigen ovalbumin, cited from earlier work

Row | Substance | concentration causing hemolysis of sheep red blood cells (sheep red blood cells) [ng/mL] | critical micellar concentration in phosphate buffered saline [1] | critical micellar concentration in water [1] | immune adjuvant activity [2] | concentration at which hemolysis occurs (sheep red blood cells; simple buffer such as saline or PBS (Kensil 1991)) [ng/mL] | critical micellar concentration ([1]; in PBS (Soltysik 1995)) | pain after injection [3] | adjuvant activity (threshold dose) relative to PBS (Balb/c mice; 5 μg OVA s.c., boost week 2, sera week 4, 2 mg/ml Polysorbate 40, 60, 80 or methyl-β-cyclodextrin in PBS) | optimum adjuvant dose (Balb/c mice; QS-21 dose, OVA-specific IgG2a, Balb/c mice) [µg] | maximum level of antibody response (Balb/c mice; at optimum adjuvant dose, excipients versus PBS) | t90 (shelf life, time to 10% degradation) ([4]; 50 μg/ml QS-21, pH 6.0) [days] | t90 (shelf life, time to 10% degradation) ([4]; 50 μg/ml QS-21, pH 7.0, 4° C.) [days] | shelf life ([4]; 500 μg/ml QS-21, pH 7.0, 4° C.) [months] | t90 (shelf life, time to 10% degradation) ([4]; 500 μg/ml QS-21, pH 7.0, 4° C.) [days] | creatine kinase (marker for muscle damage) ([5]; after injection with QS-21 in saline or PBS) | injection site histopathology ([5]; intramuscular QS-21/saline solutions, some animals (Kensil 1995)) | threshold dose for antibody (C57BL/6 mice; in PBS (Kensil 1993)) [µg] | threshold dose for CTL (C57BL/6 mice; in PBS (Newman 1992)) [µg]
1 | QS-18 | ≥ 25000 | ~0.02 % (w/v) | approximately 0.04 % (w/v) | having immune adjuvant activity | – | – | – | – | – | – | – | – | – | – | – | – | – | –
2 | QS-17 | ≥ 25000 | ~0.03 % (w/v) | approximately 0.06 % (w/v) | having immune adjuvant activity | – | – | – | – | – | – | – | – | – | – | – | – | – | –
3 | QS-21 | ≥ 25000 | ~0.02 % (w/v) | approximately 0.03 % (w/v) | having immune adjuvant activity | 5000 to 7000 | approximately 50 μg/ml | immediate, transient pain | active in all excipients within two fold of the threshold value determined in PBS | ≥ 10 | same maximum level of antibody response was reached | 679 | 94 | 23.9 | 717 | increased | mild to moderate fibroblast damage or necrosis | 2.5 | 2.5
